Key:
Assay type in all cases: biochemical
PYK-F = target: T1, PYK-F (Escherichia coli, UniProt P0AD61); assay: direct 1H NMR kinetic assay (pyruvate methyl peak); details: 2 mM PEP, 4 mM ADP, pH 7.5, 10 °C, no ribosomes; 0-8x of 50 μg/mL
T1 construct: gene pykF; full length, 470 residues, 50 kDa monomer, N-terminal 6xHis tag kept, pET-28a(+), expressed in E. coli BL21(DE3), Ni-NTA purified, homotetramer

PFK-A = target: T2, PFK-A (Geobacillus stearothermophilus, UniProt P00512); assay: direct 1H NMR kinetic assay (FBP peak); details: substrate inhibition; 1 mM F6P, 1 nM enzyme, pH 7.5, 10 mM sodium phosphate, 50 mM KCl, 10 mM MgCl2, 10 °C, no ribosomes
T2 construct: gene pfkA; commercial lyophilized enzyme (Sigma-Aldrich)

LDH-A = target: T3, LDH-A (Escherichia coli, UniProt P52643, form not given, species not given); assay: direct 1H NMR kinetic assay (lactate methyl peak); details: substrate inhibition; 0.5 mM NADH, 0.04 nM enzyme, pH 7.5, 10 mM sodium phosphate, 50 mM KCl, 10 mM MgCl2, 10 °C, no ribosomes
T3 construct: gene ldhA; commercial recombinant enzyme (Sigma-Aldrich); authors doubt its source; printed P33232 is the quinone-dependent LldD, not an NADH-dependent LDH, so identity unresolved

| Compound | reduced activity (PYK-F) | further results |
| --- | --- | --- |
| CN[C@@H]1[C@H](O[C@H]2[C@H](O[C@H]3[C@H](O)[C@@H](O)[C@H](N=C(N)N)[C@@H](O)[C@@H]3N=C(N)N)O[C@@H](C)[C@]2(O)C=O)O[C@@H](CO)[C@H](O)[C@H]1O [Str] | Ths, Kan and Str reduced PYK-F activity in both the presence and absence of ribosomes | – |
| Nc1ncnc2c1ncn2[C@@H]1O[C@H](COP(=O)(O)OP(=O)(O)OP(=O)(O)O)[C@@H](O)[C@H]1O [ATP] | – | KI (PFK-A): 5.6 ± 1.2 mM |
| NC[C@H]1O[C@H](O[C@H]2[C@H](O)[C@@H](O[C@H]3O[C@H](CO)[C@@H](O)[C@H](N)[C@H]3O)[C@H](N)C[C@@H]2N)[C@H](O)[C@@H](O)[C@@H]1O [Kan] | Ths, Kan and Str reduced PYK-F activity in both the presence and absence of ribosomes | – |
| CC(=O)C(=O)O [PYR] | – | KI (LDH-A): 0.495 ± 0.074 mM |

From publication PMC12177922, “In Vivo Ribosome-Amplified MetaBOlism, RAMBO, Effect Observed by Real Time Pulse Chase, RTPC, NMR Spectroscopy” (Biochemistry, 2025)
